According to patent US20230241178A1, “LONG ACTING GLP-1/GIP DUAL AGONISTS” (SUN PHARMACEUTICAL INDUSTRIES LIMITED, priority 2020, published 2023):
Marks after values point to notes of the source that are not given here. Numbered stars: 1 amine (or outer) side, 2 acyl side, 3 side chain; on linkers, the order of the positions; unused ones are H or OH. Square brackets hold non-standard residues; d marks the D form. Primed or numbered codes have the meaning given here. Ends that are not written are not given here. dSer(OMe) = COC[C@@H](N[*:1])C(=O)[*:2]; Moiety B″ = not defined here; Aib = CC(C)(N)C(=O)O

Legend:
[1] = tested on: type 2 diabetic mouse (db/db) model; experiment: Reduction in blood glucose and effect on body weight and food intake, single dose, db/db mice (Tables 4, 5); assay type: in vivo; settings: for Delta Blood Glucose (mM), Mean: @ 3 nM s.c.
Method: The effect of Compounds of present invention on blood glucose was studied on mice. This study was performed in a type 2 diabetic mouse (db/db) model. […] Baseline blood glucose was measured from all the animals. All animals were administered with its respective test item subcutaneously. […] Delta blood glucose (mM) was calculated. Similarly body weight changes and cumulative food consumption was measured at 96 hr post treatment.

[2] = tested on: type 2 diabetic mouse (db/db) model; experiment: Effect on blood glucose, food intake and body weight, single s.c. dose 10 nM/kg, db/db mice (Tables 8, 9); assay type: in vivo; settings: 10 nM/kg/s.c/single dose
Method: This study was performed in a type 2 diabetic mouse (db/db) model. […] Baseline blood glucose was measured from all the animals. All the animals were administered with test items subcutaneously. Blood glucose was measured at 4 hr, 12 hr, 24 hr, 48 hr, 72 hr and 96 hr post treatment. Delta blood glucose (mM) was calculated. Body weight changes and cumulative food consumption was measured at 96 hr post treatment. Similarly the effect of Compounds 11-15 on blood glucose, food intake and body weight was studied in a separate study except for Compound 13. The results are shown in Table 8 (effect on blood glucose) and Table 9 (effect on body weight and food consumption).

[3] = tested on: type 2 diabetic mouse (db/db) model; experiment: Reduction of HbA1c in db/db type 2 diabetic mice after chronic treatment (HbA1c, insulin, triglycerides, food consumption, body weight); assay type: in vivo; settings: for Cumulative Food Consumption Day 0-28 / Insulin / Triglycerides / Δ% HbA1c vs. DC / Body Weight (%) Day 28 vs. Baseline: db/db mice
Method: This study was performed in a type 2 diabetic mouse (db/db) model. […] All the treatments were injected subcutaneously every third day for 10 doses (q3d*10). % HbA1c, Insulin, Triglycerides levels were measured on Day 0, day 14 and day 28. Cumulative food intake from day 0-28 and % Change in body weight compared to day 0 was calculated on day 28.

[4] = tested on: type 2 diabetic mouse (db/db) model; experiment: Effect of Compound 2 and 7 on blood glucose, body weight and food consumption in mice, up to 72 hr (Tables 6, 7); assay type: in vivo; settings: 90 nM/kg; mice, n = 8
Method: Similarly body weight changes and cumulative food consumption was measured at 72 hr post treatment.

[5] = molecular target: glucagon-like peptide-1 receptor (GLP-1R) (UniProt P43220 24-463, limits assumed); experiment: cell-based or functional assay
GIP-receptor (GIPR) = molecular target: T1, GIP-receptor (GIPR) (UniProt P48546 22-466, limits assumed); experiment: cell-based or functional assay
T1 sequence (looked up): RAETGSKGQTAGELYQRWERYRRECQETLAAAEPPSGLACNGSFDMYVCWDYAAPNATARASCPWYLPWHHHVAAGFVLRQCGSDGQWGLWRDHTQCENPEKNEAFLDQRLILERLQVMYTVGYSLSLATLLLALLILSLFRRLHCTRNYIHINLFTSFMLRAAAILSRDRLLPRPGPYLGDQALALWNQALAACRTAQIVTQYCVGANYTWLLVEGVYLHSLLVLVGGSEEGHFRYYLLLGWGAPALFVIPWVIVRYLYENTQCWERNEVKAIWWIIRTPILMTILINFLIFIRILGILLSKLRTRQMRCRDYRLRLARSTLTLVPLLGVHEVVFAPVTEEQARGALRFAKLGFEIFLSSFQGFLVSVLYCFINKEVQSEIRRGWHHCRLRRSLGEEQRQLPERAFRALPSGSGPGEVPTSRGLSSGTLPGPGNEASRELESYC

[6] = 59 nM/kg s.c., separate study n = 5

Compound 3: Seq ID: 06 polypeptide, Lys acylated with Moiety B (Y[dSer(OMe)]EGTFTSDYSI[Aib]LDKIAQK(Moiety B″)AFVQWLIAGGPSSGAPPPS-NH2; reading uncertain)
Cumulative Food Intake (g) 0-96 hr, Mean ([1]; 3 nM/kg s.c., n = 6 study): 21.9 g | Body Weight Change (%) 96 hr., Mean ([1]; 3 nM/kg s.c., n = 6 study): −2.5*** % | Delta Blood Glucose (mM), Mean ([1]; 4 hr post treatment, n = 6 study): -9.2 mM | Delta Blood Glucose (mM), Mean ([1]; 12 hr post treatment, n = 6 study): -2.9 mM | Delta Blood Glucose (mM), Mean ([1]; 24 hr post treatment, n = 6 study): 1.6 mM | Delta Blood Glucose (mM), Mean ([1]; 48 hr post treatment, n = 6 study): 0.7 mM | Delta Blood Glucose (mM), Mean ([1]; 72 hr post treatment, n = 6 study): 2 mM | Delta Blood Glucose (mM), Mean ([1]; 96 hr post treatment, n = 6 study): 2.1 mM

Compound 11: Seq ID: 11 polypeptide, Lys acylated with Moiety B (YXEGTFTSDYSIXLDKIAQKAFVQWLIAGGPSSGAPPPSR; (2)..(2) Xaa = Aib (2-Aminoisobutyric acid); (13)..(13) Xaa = Aib (2-Aminoisobutyric acid); (20)..(20) Side chain amino (Epsilon amino) group of Lys is substituted)
Delta Blood Glucose (mM), Mean ([2]; 0 hr (baseline)): 0.0 mM | Body Wt. Change (%) 96 hr. vs. Baseline, Mean [2]: −4.5*** % | Cumulative food Intake (g) 96 hr. vs. Baseline, Mean [2]: 14.1*** g | blood glucose reduction post treatment (in words) [2]: statistically significant blood glucose reduction | Delta Blood Glucose (mM), Mean ([2]; 4 hr post treatment): −10.5*** mM | Delta Blood Glucose (mM), Mean ([2]; 12 hr post treatment): −11.2*** mM | Delta Blood Glucose (mM), Mean ([2]; 24 hr post treatment): −14.6*** mM | Delta Blood Glucose (mM), Mean ([2]; 48 hr post treatment): −6.4*** mM | Delta Blood Glucose (mM), Mean ([2]; 72 hr post treatment): −2.9*** mM | Delta Blood Glucose (mM), Mean ([2]; 96 hr post treatment): 1.1 mM

Compound 12: Seq ID: 11 polypeptide, Lys acylated with Moiety C (YXEGTFTSDYSIXLDKIAQKAFVQWLIAGGPSSGAPPPSR; (2)..(2) Xaa = Aib (2-Aminoisobutyric acid); (13)..(13) Xaa = Aib (2-Aminoisobutyric acid); (20)..(20) Side chain amino (Epsilon amino) group of Lys is substituted)
Delta Blood Glucose (mM), Mean ([2]; 0 hr (baseline)): 0.0 mM | Body Wt. Change (%) 96 hr. vs. Baseline, Mean [2]: −3.1** % | Cumulative food Intake (g) 96 hr. vs. Baseline, Mean [2]: 15.2*** g | Delta Blood Glucose (mM), Mean ([2]; 4 hr post treatment): −14.2*** mM | Delta Blood Glucose (mM), Mean ([2]; 12 hr post treatment): −13.0*** mM | Delta Blood Glucose (mM), Mean ([2]; 24 hr post treatment): −8.0*** mM | Delta Blood Glucose (mM), Mean ([2]; 48 hr post treatment): −5.5* mM | Delta Blood Glucose (mM), Mean ([2]; 72 hr post treatment): -2.9 mM | Delta Blood Glucose (mM), Mean ([2]; 96 hr post treatment): 1.7 mM

Compound 16: Seq ID: 11 polypeptide, Lys acylated with Moiety D (YXEGTFTSDYSIXLDKIAQKAFVQWLIAGGPSSGAPPPSR; (2)..(2) Xaa = Aib (2-Aminoisobutyric acid); (13)..(13) Xaa = Aib (2-Aminoisobutyric acid); (20)..(20) Side chain amino (Epsilon amino) group of Lys is substituted)
Delta Blood Glucose (mM), Mean ([2]; 0 hr (baseline)): 0.0 mM | Delta Blood Glucose (mM), Mean ([2]; 4 hr post treatment): −14.4*** mM | Delta Blood Glucose (mM), Mean ([2]; 12 hr post treatment): −12.1*** mM | Delta Blood Glucose (mM), Mean ([2]; 24 hr post treatment): −10.8*** mM | Delta Blood Glucose (mM), Mean ([2]; 48 hr post treatment): −4.9** mM | Delta Blood Glucose (mM), Mean ([2]; 72 hr post treatment): 0.8 mM | Delta Blood Glucose (mM), Mean ([2]; 96 hr post treatment): 0.7* mM

Tirzepatide [reference compound]
improvement in HbA1c reduction from day 14 to day 28 (in words) ([3]; 180 nM/kg dose): minimal improvement in HbA1c reduction | Cumulative Food Consumption Day 0-28 ([3]; 90 nM/kg s.c. q3d*10): 119.1 | Cumulative Food Consumption Day 0-28 ([3]; 180 nM/kg s.c. q3d*10): 90.1 | Insulin ([3]; Day 14, 90 nM/kg s.c. q3d*10): 65.23 ng/mL | Triglycerides ([3]; Day 14, 90 nM/kg s.c. q3d*10): 168.7 mg/dL | Δ% HbA1c vs. DC ([3]; Day 14, 90 nM/kg s.c. q3d*10): −2.63*** % | Insulin ([3]; Day 14, 180 nM/kg s.c. q3d*10): 71.77 ng/mL | Triglycerides ([3]; Day 14, 180 nM/kg s.c. q3d*10): 143.4 mg/dL | Δ% HbA1c vs. DC ([3]; Day 14, 180 nM/kg s.c. q3d*10): −3.50*** % | Body Weight (%) Day 28 vs. Baseline ([3]; Day 28, 90 nM/kg s.c. q3d*10): −0.9% | Insulin ([3]; Day 28, 90 nM/kg s.c. q3d*10): 52.32 ng/mL | Triglycerides ([3]; Day 28, 90 nM/kg s.c. q3d*10): 167.4 mg/dL | Δ% HbA1c vs. DC ([3]; Day 28, 90 nM/kg s.c. q3d*10): −3.43*** % | Body Weight (%) Day 28 vs. Baseline ([3]; Day 28, 180 nM/kg s.c. q3d*10): −6.8% | Insulin ([3]; Day 28, 180 nM/kg s.c. q3d*10): 60.19 ng/mL | Triglycerides ([3]; Day 28, 180 nM/kg s.c. q3d*10): 141.3 mg/dL | Δ% HbA1c vs. DC ([3]; Day 28, 180 nM/kg s.c. q3d*10): −3.74*** % | Cumulative Food Intake (g) 0-96 hr, Mean ([1]; 10 nM/kg s.c., n = 6 study): 13.3*** g | Body Weight Change (%) 96 hr., Mean ([1]; 10 nM/kg s.c., n = 6 study): −3.4*** % | Cumulative Food Intake (g) 0-96 hr, Mean [1, 6]: 15.9 g | Body Weight Change (%) 96 hr., Mean [1, 6]: −2.8** % | % Body wt. change 72 hr. vs. 0 hr., Mean [4]: −6.7*** % | Cumulative Food Consumption (0-72 hr) (g), Mean [4]: 8.1** g

B1: Compound 2 (peptide)
peptide: YXEGTFTSDYSIXLDKIAQKAFVQWLIAGGPSSGAPPPS
modifications: Aib at positions 2 and 13; side chain epsilon-amino group of Lys 20 acylated with Moiety B (U-W-Y-Z with W = -C(O)-C(CH3)2-NH-, i.e. 2-[2-(2-aminoethoxy)ethoxy]acetyl-Aib-gammaGlu-C20 diacid); C-terminal primary amide (Ser-NH2)
Tirzepatide/Compound 2 ratio of half-maximal effective concentrations, cellular cAMP assay [5]: 1.68 ratio | Tirzepatide/Compound 2 ratio of half-maximal effective concentrations, cellular cAMP assay (GIP-receptor (GIPR)): 0.81 ratio
